# Results published in patent publication US9539298B2, “Lissencephaly therapeutic agent” (OSAKA CITY UNIVERSITY, priority 2010, dated 2017).
# Test system: Lis1+/− mouse embryonic fibroblasts (MEF)
# Experiment: Change in LIS1 protein amount in cells by SNJ-1945 (western blotting)
# Type: cell-based
# Conditions: Lis1+/− MEF treated with SNJ-1945, western blotting, FIG. 1
# Protocol: Fibroblasts (MEF; mouse embryonic fibroblasts) were established from five each of LIS1 gene hetero-deficient and wild-type mice (12.5- to 14.5-day-old embryos). The fibroblasts were established as follows. Pregnant mice were killed by cervical fracture, and the mouse embryos were immediately isolated under a germ-free condition. After the heads and visceral tissues were removed with tweezers, the mouse embryos were dissected with scissors. 10 ml of Trypsin-EDTA (Gibco, 25200) was added to each dissected tissue fraction, and the resulting liquid was placed in a 50 ml plastic tube (Nunc, 373687) to be subjected to 30-minute incubation at 37° C. After incubation, 10 ml of fetal bovine serum (Equitech-Bio, Inc., SFBM30-1798) was added, followed by pipetting with a 10 ml pipette (Nunc, 159633), thereby isolating the cells. After the cells were allowed to stand at room temperature for 5 minutes, the supernatant was collected. […]
# Using the cells, the influence of SNJ-1945 on the LIS protein amount in each cell was analyzed as follows. […] After determination of protein quantity, 10 μg of protein was placed on each lane. After isolation using a 10% acrylic gel (SDS-PAGE), the protein was transferred to an Immobilon membrane (Millipore, IPVH00010), and LIS and DIC (dynein intermediate chain: reflecting the dynein amount) were detected. […] was detected to be used as a protein amount reference. […]
structure (smiles),measurement,value
"COCCOCCOC(=O)N[C@@H](CC(C)C)C(=O)N[C@@H](Cc1ccccc1)C(=O)C(=O)NC1CC1 [compound 17, ((1S)-1-((((1S)-1-Benzyl-2,3-dioxo-3-(cyclopropylamino)propyl)amino)carbonyl)-3-methylbutyl)carbamic acid 5-methoxy-3-oxapentyl ester]",LIS protein amount in cells,the decrease in the LIS protein amount was recovered
